How the values were obtained:
[1] = tested on: PanIN and PDA tumor growth in KIC mice; experiment: Two week in vivo assay in Rgs16::GFP;KIC mice, Rgs16::GFP intensity at P29; design: species or system mouse
Description: Fluorescent microscopy and GFP quantification. Pancreatic expression of Rgs16::GFP in GFP-PDA mice was quantified using a Zeiss Lumar microscope. Images were captured using a single-channel camera (Hamamatsu) in 1344×1024 resolution with 1 sec exposure under 48× magnification with 1×1 binning, analog gain=10, and analog offset=2 settings. Pancreatic fields representing the tumor burden (3-4 fields for P15 pups and 5 or more for pups from P23 onwards) of the pancreas were imaged covering up to 50% of the organ surface area. All images were saved in gray-scale 16-bit tiff format. Images were quantified using NIH ImageJ software with background subtraction with a radius of 50 pixels. A variable and tight threshold was set to eliminate residual background. Intensities of all particles with size ≥5 pixels were summed to obtain the total light intensity per image.
Drug dosages. GFP-PDA mice were injected intraperitoneally with gemcitabine (Eli Lilly; Indianapolis, Ind., USA) (12.5 mg/kg/day given 3 days/week, dissolved in PBS), Abraxane (Cellgene; Summit, N.J., USA) (5 mg/kg/day given 2 days/week, diluted in 2% saline solution), BGB324 (BerGenBio, Bergen, Norway) (5 mg/kg/day given 5 days/week, dissolved in a mix of DMSO:ethanol:Kolliphor EL:water with 4:4:8:84 v/v ratio), and warfarin (0.2 mg/kg/day given 5 days/week, dissolved in PBS) according to injection schedules specified below. These doses were validated in prior mouse studies (Dineen et al., 2010; Kutluk Cenik et al., 2013; Ostapoff et al., 2013; Aguilera et al., 2014; Ostapoff et al., 2014). […] To verify tumor progression remains constant over the duration of these experiments, assays of untreated mice were interspersed with drug-treated cohorts, and warfarin-treated pups were the final cohort the inventors tested. Gemcitabine, Abraxane and warfarin were purchased from the UT Southwestern clinical pharmacy; BGB324 was a gift from BerGenBio.
Statistical analysis of GFP expression. GFP values were converted to log10 scale prior to statistical analysis. Graphs and their statistical comparisons were done using Graphpad Prism software with unpaired and two-tailed Student's t test. Significance between groups was indicated as ns (not significant); *p<0.05; **p<0.01; ***p<0.001; ****p<0.0001. Error bars in all the graphs are standard error mean (SEM). See FIGS. 7-8 for additional statistical analysis.
The therapeutic screening strategy was to treat KIC pups between P15-P28 (when PanIN and PDA are in rapid expansion) with anticancer drugs, sacrifice mice at P29, and capture Rgs16::GFP intensity with a dissection fluorescence microscope. Images of the five brightest non-overlapping fields of Rgs16::GFP expression were then collected, representing the regions of greatest tumor burden (FIGS. 17A-C).

[2] = tested on: pancreatic ductal adenocarcinoma (PDA) metastases; experiment: Metastatic burden in five murine models of PDA under low dose warfarin; assay type: in vivo, mouse; conditions: four of the five PDA models; warfarin 0.5-1 mg/L drinking water
Protocol: (FIG. 23A) Primary tumor burden after therapy with warfarin. Therapy was initiated when implanted tumors were visible by ultrasound (˜10 mm^3) and consisted of control (normal drinking water) or warfarin, administered in the drinking water at 0.5 mg/L (immunocompetent mice: Pan02 (n=4, control; 3, warfarin), KIC (n=10, control; 8, warfarin)) or 1 mg/L (Panc-1 (n=10, control; 8, warfarin), AsPC-1 (n=8, control; 6, warfarin), Capan-1 (n=10, control; 7, warfarin)) and continued for 2-4 weeks until control mice were moribund. Therapy in KIC mice was initiated at 3 weeks of age and continued for 4 weeks. (FIG. 23B) Metastases were determined grossly upon sacrifice and confirmed by histological evaluation of the liver. […] Incidence of metastasis is also indicated. […] Tumor volume determined by serial ultrasound. […] Therapy with mAb 10C9 (250 μg 2×/week) was initiated when tumors were established as above and persisted for 4 weeks. […] Error bars indicate s.e.m.
Animal studies. […] Mice with established tumors, as determined by sonography were randomized to receive normal drinking water or water containing 1 mg/L (˜3.0 μM) warfarin for experiments in immunocompromised mice and 0.5 mg/L (˜1.5 μM) in experiments in immunocompetent animals with or without gemcitabine 25 mg/kg twice weekly depending on experimental design.

Mia PaCa-2 cells = experiment: Mesenchymal/epithelial markers by ICC; assay type: cell-based, human; conditions: warfarin, in vitro
Protocol: FIGS. 31A-B. Maintenance of mesenchymal phenotype is Axl dependent and inhibited by warfarin. (FIGS. 31A-B) Mia PaCa-2 cells were grown in 1% serum containing media the absence (Control) or presence of warfarin (2 μM) overnight. Cells were assessed for expression of phosphorylated Axl, nuclear Zeb1 (FIG. 31A) and vimentin and E-cadherin (FIG. 31B) by ICC. […] (FIG. 31B) Representative images of Vimentin and E-Cadherin expression are shown, total magnification 400×. Images were analyzed using Elements software. Welch's t-test*, p<0.05; **, p<0.01 vs control.
Signaling and functional assays. Cells were grown to confluence in […] or 4 well chamber slides and treated overnight with low serum (1-2%) media+/−warfarin (2 μM) or 10C9 (1.1 μM, 168 μg/ml) overnight. Cells were subsequently analyzed by western blot or immunocytochemsitry (ICC).

[3] = target: vitamin K epoxide reductase (Homo sapiens, UniProt Q9BQB6); conditions: cited from earlier work
vitamin K epoxide reductase, sequence (Q9BQB6 whole entry): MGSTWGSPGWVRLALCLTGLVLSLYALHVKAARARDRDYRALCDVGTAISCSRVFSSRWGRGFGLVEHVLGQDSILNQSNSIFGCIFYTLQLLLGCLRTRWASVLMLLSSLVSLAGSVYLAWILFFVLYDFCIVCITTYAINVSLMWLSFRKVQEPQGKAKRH

CC(=O)CC(c1ccccc1)c1c(O)c2ccccc2oc1=O (racemic) [Warfarin]
effect on PanIN lesions and PDA tumor growth (Rgs16::GFP expression) ([1]; KIC mice treated P15-P28, i.p., sacrificed P29): no effect
mice with at least one field in the lower 1% ile of all untreated fields ([1]; P29, untreated 7%): 19%
mice with at least one field of Rgs16::GFP expression in pancreas greater than the upper 95% ile of all untreated fields ([1]; P29, untreated 14%): 13%
metastatic burden [2]: consistently and potently inhibited metastatic burden
expression of the epithelial marker E-cadherin (Mia PaCa-2 cells): elevating
pAxl levels, surface Axl expression, Zeb1 and vimentin (Mia PaCa-2 cells): reduced
duration of action of a single dose [3]: 2 to 5 days
